Test results published in BigSolDB 2.1.

Oc1ccc(C2(c3ccc(O)cc3)CCCCC2)cc1
solubility (mole fraction)
Conditions | in 1,4-dioxane | in THF | in acetone | in ethanol | in ethyl acetate | in isopropanol | in methanol | in n-butanol | in n-propanol
288.15 K | 0.0609 | 0.182 | 0.0602 | 0.0073 | 0.0571 | 0.0053 | 0.012 | 0.012 | 0.032
293.15 K | 0.0621 | 0.192 | 0.0652 | 0.0084 | 0.0681 | 0.0061 | 0.0129 | 0.0127 | 0.0355
298.15 K | 0.0676 | 0.206 | 0.0756 | 0.0096 | 0.0769 | 0.0066 | 0.0162 | 0.0133 | 0.0437
303.15 K | 0.0731 | 0.221 | 0.0931 | 0.0117 | 0.0951 | 0.0076 | 0.0208 | 0.0157 | 0.0563
308.15 K | 0.0866 | 0.236 | 0.109 | 0.013 | 0.113 | 0.0089 | 0.0253 | 0.0184 | 0.0654
313.15 K | 0.103 | 0.251 | 0.127 | 0.0152 | 0.136 | 0.0134 | 0.0342 | 0.0236 | 0.0789
318.15 K | 0.116 | 0.268 | 0.152 | 0.017 | 0.15 | 0.0192 | 0.0428 | 0.028 | 0.0896
323.15 K | 0.127 | 0.283 | 0.182 | 0.0186 | 0.176 | 0.0243 | 0.0547 | 0.0348 | 0.103
328.15 K | 0.144 | 0.308 | 0.219 | 0.0202 | 0.199 | 0.0294 | 0.0685 | 0.0431 | 0.121
